US20250281464A1, “TREATMENT OF PATHOGENIC NEISSERIA SP. INFECTION WITH TRIAZOLE ANTIFUNGAL AGENTS” (Virginia Tech Intellectual Properties, Inc., priority 2022, published 2025)
≈ marks a conversion by molar mass, not a printed value. Read-outs that look alike come from different tables or passages of the source.

Experiments:
N. gonorrhoeae isolates = experiment: MIC against panel of N. gonorrhoeae clinical isolates; assay type: cell-based, Neisseria gonorrhoeae; conditions: for MIC50: read-out: MIC50; for MIC90: read-out: MIC90
L. crispatus = experiment: MIC against commensal vaginal Lactobacillus strains; assay type: cell-based, Lactobacillus crispatus; conditions: for MIC: Lactobacillus crispatus; for MIC Range: Table 6, L. crispatus (3 strains)
Description: (§1) N. gonorrhoeae pathogenesis greatly depends on colonization of the reproductive tract. One of the natural barriers of such colonization is an intact healthy microbiome. Species of lactobacilli present in the genitourinary tract play a significant role in hindering colonization by Neisseria(1).
(§2) A healthy vaginal microbiome that is dominated by Lactobacillus spp. is less susceptible to N. gonorrhoeae infection and other sexually transmitted diseases (STDs). […] We tested the activity of azoles against important members of healthy vaginal microbiota that inhibit N. gonorrhoeae colonization.

L. gasseri = experiment: as above; assay type: cell-based, Lactobacillus gasseri; conditions: for MIC: Lactobacillus gasseri; for MIC Range: Table 6, L. gasseri (4 strains)
Description: as §1, §2

L. jensenii = experiment: as above; assay type: cell-based, Lactobacillus jensenii; conditions: for MIC: Lactobacillus jensenii; for MIC Range: Table 6, L. jensenii (7 strains)
Description: as §1, §2

L. johnsonii = experiment: as above; assay type: cell-based, Lactobacillus johnsonii; conditions: for MIC: Lactobacillus johnsonii, L. johnsonii HM-643; for MIC Range: Table 6, L. johsonii (2 strains)
Description: as §1, §2

N. gonorrhoeae [1] = experiment: Post-antibiotic effect (PAE) against N. gonorrhoeae; assay type: cell-based, Neisseria gonorrhoeae; conditions: 1 h exposure at 10×MIC
Description: Determining the PAE of a new antimicrobial is an important step for dosing and has clinical importance.

[2] = MIC against normal gut microbiota; assay type: cell-based
Description: (§3) Disrupting the intestinal microbiota using broad-spectrum antimicrobial therapy increases the susceptibility of hosts to C. difficile colonization.

Bacteroides dorei = experiment: MIC against normal gut microbiota; assay type: cell-based; conditions: Bacteroides dorei (2 strains)
Description: as §3

Bacteroides fragilis = experiment: MIC against normal gut microbiota; assay type: cell-based; conditions: Bacteroides fragilis (4 strains)
Description: as §3

[3] = tested on: Bifidobacterium angulatum; experiment: MIC against normal gut microbiota; assay type: cell-based; conditions: Bifidobacterium angulatum (1 strain)
Description: as §3

Enterococcus faecalis = experiment: MIC against normal gut microbiota; assay type: cell-based; conditions: Enterococcus faecalis (1 strain)
Description: as §3

Enterococcus faecium = experiment: MIC against normal gut microbiota; assay type: cell-based; conditions: Enterococcus faecium (1 strain)
Description: as §3

Escherichia coli = experiment: MIC against normal gut microbiota; assay type: cell-based; conditions: Escherichia coli (1 strain)
Description: as §3

Lactobacillus brevis = experiment: MIC against normal gut microbiota; assay type: cell-based; conditions: Lactobacillus brevis (1 strain)
Description: as §3

Lactobacillus casei = experiment: MIC against normal gut microbiota; assay type: cell-based; conditions: Lactobacillus casei (1 strain)
Description: as §3

Lactobacillus rhamnosus = experiment: MIC against normal gut microbiota; assay type: cell-based; conditions: Lactobacillus rhamnosus (1 strain)
Description: as §3

Staphylococcus aureus = experiment: MIC against normal gut microbiota; assay type: cell-based; conditions: Staphylococcus aureus (1 strain)
Description: as §3

N. meingitidis = experiment: MIC against Neisseria spp.; assay type: cell-based, Neisseria meningitidis; conditions: N. meingitidis (5 strains)
N. flavescens = experiment: MIC against Neisseria spp.; assay type: cell-based; conditions: N. flavescens (1 strain)
Description: (§4) Intrigued by the specificity and potent activity of azoles against N. gonorrhoeae, we evaluated the extent of the azoles' antibacterial activity against other Neisseria species (Table 8).

N. lactamica = experiment: MIC against Neisseria spp.; assay type: cell-based; conditions: N. lactamica (1 strain)
Description: as §4

N. mucosa = experiment: MIC against Neisseria spp.; assay type: cell-based; conditions: N. mucosa (1 strain)
Description: as §4

[4] = tested on: resistant N. gonorrhoeae isolates; experiment: MIC against resistant N. gonorrhoeae isolates by agar dilution; assay type: cell-based, Neisseria gonorrhoeae
[5] = tested on: commensal vaginal lactobacilli strains; experiment: MIC against all commensal vaginal Lactobacillus strains tested; assay type: cell-based, Lactobacillus spp.; conditions: Lactobacillus; all strains of lactobacilli (Example 1 text); read-out: MIC
Description: as §1, §2

N. gonorrhoeae [6] = experiment: Drug library screen against N. gonorrhoeae; assay type: cell-based, Neisseria gonorrhoeae; conditions: Johns Hopkins Clinical Compounds Library, MCE FDA-Approved Drug Library, Pharmakon library; killing in clinical range
Description: To identify drugs capable of killing Neisseria gonorrhoeae, the Johns Hopkins Clinical Compounds Library (1514), the MCE FDA-Approved Drug Library (2441), and the Pharmakon library (1600) were screened against N. gonorrhoeae. Positive hits that are capable of killing Neisseria gonorrhoeae in clinical range were identified (itraconazole, ravuconazole and isavuconazole).

[7] = from single dose; cited from earlier work
[8] = Neisseria gonorrhoeae, Table 1, 104 N. gonorrhoeae isolates
[9] = Neisseria gonorrhoeae, Table 3, 103 N. gonorrhoeae isolates with different resistance profiles
[10] = Table 3, 103 N. gonorrhoeae isolates with different resistance profiles
[11] = Bacteroides adolescentis (2 strains)
[12] = Neisseria gonorrhoeae, panel of 84 N. gonorrhoeae clinical isolates

CCC(C)n1ncn(-c2ccc(N3CCN(c4ccc(OCC5COC(Cn6cncn6)(c6ccc(Cl)cc6Cl)O5)cc4)CC3)cc2)c1=O (stereo not shown) [Itraconazole]
MIC50 (N. gonorrhoeae isolates; [8]): 1 µg/mL (≈ 1.42 µM) | MIC90 (N. gonorrhoeae isolates; [8]): 2 µg/mL (≈ 2.83 µM) | MIC50 (N. gonorrhoeae isolates; [9]): 1 µg/mL (≈ 1.42 µM) | MIC90 (N. gonorrhoeae isolates; [9]): 2 µg/mL (≈ 2.83 µM) | MIC Range (N. gonorrhoeae isolates; Table 1, 104 N. gonorrhoeae isolates): 0.03 to 4 µg/mL | MIC Range (N. gonorrhoeae isolates; [10]): 0.03 to 8 µg/mL | MIC (L. crispatus; L. crispatus HM-103): > 256 µg/mL | MIC (L. crispatus; L. crispatus HM-371): > 256 µg/mL | MIC (L. crispatus; L. crispatus HM-638): > 256 µg/mL | MIC Range (L. crispatus): ≥256 µg/mL | MIC (L. gasseri; L. gasseri HM-407): > 256 µg/mL | MIC (L. gasseri; L. gasseri HM-642): > 256 µg/mL | MIC (L. gasseri; L. gasseri HM-644): > 256 µg/mL | MIC (L. gasseri; L. gasseri HM-647): > 256 µg/mL | MIC Range (L. gasseri): ≥256 µg/mL | MIC (L. jensenii; L. jensenii HM-105): > 256 µg/mL | MIC (L. jensenii; L. jensenii HM-372): > 256 µg/mL | MIC (L. jensenii; L. jensenii HM-374): > 256 µg/mL | MIC (L. jensenii; L. jensenii HM-639): > 256 µg/mL | MIC (L. jensenii; L. jensenii HM-640): > 256 µg/mL | MIC (L. jensenii; L. jensenii HM-645): > 256 µg/mL | MIC (L. jensenii; L. jensenii HM-646): > 256 µg/mL | MIC Range (L. jensenii): ≥256 µg/mL | MIC (L. johnsonii): > 256 µg/mL | MIC Range (L. johnsonii): ≥256 µg/mL | PAE (N. gonorrhoeae [1]; strain FA 1090): 4 h | PAE (N. gonorrhoeae [1]; strain WHO P): 4 h | PAE (N. gonorrhoeae [1]; strain WHO Y): 4 h | MIC Range [2, 11]: >256 µg/mL | MIC Range ([2]; Bacteroides breve (2 strains)): >256 µg/mL | MIC Range ([2]; Bacteroides longum (2 strains)): >256 µg/mL | MIC Range (Bacteroides dorei): >256 µg/mL | MIC Range (Bacteroides fragilis): >256 µg/mL | MIC Range [3]: >256 µg/mL | MIC Range (Enterococcus faecalis): >256 µg/mL | MIC Range (Enterococcus faecium): >256 µg/mL | MIC Range (Escherichia coli): >256 µg/mL | MIC Range (Lactobacillus brevis): >256 µg/mL | MIC Range (Lactobacillus casei): >256 µg/mL | MIC Range (Lactobacillus rhamnosus): >256 µg/mL | MIC Range (Staphylococcus aureus): >256 µg/mL | MIC Range (N. meingitidis): 0.125 to 1 µg/mL | MIC Range (N. flavescens): 64 µg/mL (≈ 90.7 µM) | MIC Range (N. lactamica): 4 µg/mL (≈ 5.67 µM) | MIC Range (N. mucosa): 64 µg/mL (≈ 90.7 µM)

C[C@@H](c1nc(-c2ccc(C#N)cc2)cs1)[C@](O)(Cn1cncn1)c1ccc(F)cc1F [Ravuconazole]
MIC50 (N. gonorrhoeae isolates; [8]): 0.03 µg/mL (≈ 0.0686 µM) | MIC90 (N. gonorrhoeae isolates; [8]): 0.06 µg/mL (≈ 0.137 µM) | MIC50 (N. gonorrhoeae isolates; [9]): 0.03 µg/mL (≈ 0.0686 µM) | MIC90 (N. gonorrhoeae isolates; [9]): 0.06 µg/mL (≈ 0.137 µM) | MIC50 (N. gonorrhoeae isolates; [12]): 0.03 µg/mL (≈ 0.0686 µM) | MIC90 (N. gonorrhoeae isolates; [12]): 0.06 µg/mL (≈ 0.137 µM) | MIC (N. gonorrhoeae isolates; Neisseria gonorrhoeae, 103 N. gonorrhoeae isolates, read-out: highest MIC value): 0.25 µg/mL (≈ 0.571 µM) | MIC Range (N. gonorrhoeae isolates; [10]): 0.002 to 0.25 µg/mL | fold more potent antimicrobial activity than isavuconazole (N. gonorrhoeae isolates; from Table 3 and Table 8): ≥ 125 fold | MIC ([4]; strain CDC-174, agar dilution): 0.25 µg/mL (≈ 0.571 µM) | MIC ([4]; strain CDC-179, agar dilution): 0.06 µg/mL (≈ 0.137 µM) | MIC ([4]; strain CDC-181, agar dilution): 0.25 µg/mL (≈ 0.571 µM) | MIC ([4]; strain WHO-L, agar dilution): 0.25 µg/mL (≈ 0.571 µM) | MIC ([4]; strain WHO-X, agar dilution): 0.25 µg/mL (≈ 0.571 µM) | MIC ([4]; strain WHO-Y, agar dilution): 0.25 µg/mL (≈ 0.571 µM) | MIC ([4]; strain WHO-Z, agar dilution): 0.25 µg/mL (≈ 0.571 µM) | MIC (L. crispatus; L. crispatus HM-103): > 256 µg/mL | MIC (L. crispatus; L. crispatus HM-371): > 256 µg/mL | MIC (L. crispatus; L. crispatus HM-638): > 256 µg/mL | MIC Range (L. crispatus): ≥256 µg/mL | MIC (L. gasseri; L. gasseri HM-407): > 256 µg/mL | MIC (L. gasseri; L. gasseri HM-642): > 256 µg/mL | MIC (L. gasseri; L. gasseri HM-644): > 256 µg/mL | MIC (L. gasseri; L. gasseri HM-647): > 256 µg/mL | MIC Range (L. gasseri): ≥256 µg/mL | MIC (L. jensenii; L. jensenii HM-105): > 256 µg/mL | MIC (L. jensenii; L. jensenii HM-372): > 256 µg/mL | MIC (L. jensenii; L. jensenii HM-374): > 256 µg/mL | MIC (L. jensenii; L. jensenii HM-639): > 256 µg/mL | MIC (L. jensenii; L. jensenii HM-640): > 256 µg/mL | MIC (L. jensenii; L. jensenii HM-645): > 256 µg/mL | MIC (L. jensenii; L. jensenii HM-646): > 256 µg/mL | MIC Range (L. jensenii): ≥256 µg/mL | MIC (L. johnsonii): > 256 µg/mL | MIC Range (L. johnsonii): ≥256 µg/mL | MIC [5]: > 256 µg/mL | PAE (N. gonorrhoeae [1]; strain FA 1090): 12 h | PAE (N. gonorrhoeae [1]; strain WHO P): >16 h | PAE (N. gonorrhoeae [1]; strain WHO Y): 16 h | MIC Range [2, 11]: >256 µg/mL | MIC Range ([2]; Bacteroides breve (2 strains)): >256 µg/mL | MIC Range ([2]; Bacteroides longum (2 strains)): >256 µg/mL | MIC Range (Bacteroides dorei): >256 µg/mL | MIC Range (Bacteroides fragilis): >256 µg/mL | MIC Range [3]: >256 µg/mL | MIC Range (Enterococcus faecalis): >256 µg/mL | MIC Range (Enterococcus faecium): >256 µg/mL | MIC Range (Escherichia coli): >256 µg/mL | MIC Range (Lactobacillus brevis): >256 µg/mL | MIC Range (Lactobacillus casei): >256 µg/mL | MIC Range (Lactobacillus rhamnosus): >256 µg/mL | MIC Range (Staphylococcus aureus): >256 µg/mL | MIC Range (N. meingitidis): 0.004 to 0.008 µg/mL | MIC Range (N. flavescens): 0.125 µg/mL (≈ 0.286 µM) | MIC Range (N. lactamica): 0.03 µg/mL (≈ 0.0686 µM) | MIC Range (N. mucosa): 0.125 µg/mL (≈ 0.286 µM) | screening outcome (N. gonorrhoeae [6]): Positive hits | half-life [7]: up to 8 days
